Source: US8145437B2, “System and method to obtain oligo-peptides with specific high affinity to query proteins” (priority 2005, dated 2012)

B1: TARGET TEMPLATE to … (GAL4 17-31AA): Target oligo template pool, 1st and 3rd codon letters reverse-complementary to Gal4 coding sequence 17-31, 2nd letter undefined (nucleic acid)
DNA: GGATCCATGANTCNTGNCANGGNCTNCTNGANGANAANTCNGTNGANATNGCNGATTCGGCCGC
modifications: listed as DNA, chemistry not fully specified; the letters are possibly those of the target site
B2: prolactin (protein, UniProt P01236 29-227, looked up)
Prolactin: LPICPGGAARCQVTLRDLFDRAVVLSHYIHNLSSEMFSEFDKRYTHGRGFITKAINSCHTSSLATPEDKEQAQQMNQKDFLSLIVSILRSWNEPLYHLVTEVRGMQEAPEAILSKAVEIEEQTKRLLEGMELIVSQVHPETKENEIYPVWSGLPSLQMADEESRLSAYYNLLHCLRRDSHKIDNYLKLLKCRIIHNNNC

Columns and labels:
GAL4 peptide = assay: Binding of fluorescent labeled GAL4 peptide to protein extracts of monoclonal clones; conditions: other proteins tested even in much higher concentrations
[1] = target: T1, dimerisation domain of 1HBW REGULATORY PROTEIN GAL4 (Saccharomyces cerevisiae, UniProt P04386); assay: BacterioMatch two-hybrid assay with Target Oligo Pool in pTRG vector; assay type: cell-based; conditions: ampicillin-resistant reporter
T1 construct: the dimerisation domain of 1HBW REGULATORY PROTEIN GAL4 inserted into pBT (as it is provided and described by Stratagene); host or cells: E. coli BacterioMatch two-hybrid reporter strain (derived from XL1-Blue MRF')
Method: The BacterioMatch™ two-hybrid system* (Stratagene, 11011 N. Torrey Pines Road La Jolla, Calif. 92037) was used to Quickly Detect Protein-Protein Interactions designed by the recent Method. It is a simple alternative or complement to yeast two-hybrid systems for in vivo detection of protein-protein interactions. Because the two-hybrid assay is performed in bacteria, results are obtained more easily and quickly than in yeast. The system is based on transcriptional activation of a primary ampicillin-resistant reporter and a secondary β-galactosidase reporter for validation. The BacterioMatch two-hybrid system is based on a methodology developed by Dove, Joung, and Hochschild of Harvard Medical School.
The BacterioMatch two-hybrid system is based on transcriptional activation (FIG. 4). A protein of interest—the bait—is fused to the full-length bacteriophage repressor protein (.lamda.cI). The corresponding target protein is fused to the amino-terminal domain of the α-subunit of RNA polymerase (RNAPα). The bait is tethered to the […] sequence upstream of the reporter promoter through the DNA-binding domain of .lamda.cI. If the bait and target interact, they recruit and stabilize the binding of RNA polymerase close to the promoter and activate the transcription of the ampicillin-resistant reporter gene in the BacterioMatch two-hybrid reporter strain. […]

T1 sequence (P04386 50-106 limits assumed): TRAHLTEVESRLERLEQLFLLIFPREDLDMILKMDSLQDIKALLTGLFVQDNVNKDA

Row | Molecule | competition with binding of labeled GAL4 to the proteins from positive clones (GAL4 peptide) | positive bacterial clones growing on double selective medium [1]
1 | growth hormone | ineffective competitors | –
2 | Unlabelled GAL4: unlabelled GAL4 peptide, the query, used as competitor of labeled GAL4 (ESRLERLEQLFLLIF) | inhibited | –
3 | B1 | – | numerous positive bacterial clones
4 | B2 | ineffective competitors | –
